Entries after “also recorded” stand apart in the source; their conditions may differ.
What was measured:
ethanol intake = conditions: literature (Keung and Vallee); cited from earlier work
recombinant human ALDH2 = recombinant human ALDH2 (Homo sapiens (Human), UniProt P05091); experiment: ALDH2 assay (NADH formation); type: biochemical; conditions: 10 nM recombinant human ALDH2, 150 uM formaldehyde, 60 min pre-incubation; read-out: IC50 hALDH2
Procedure: Standard ALDH2 reaction mixtures contained 150 uM formaldehyde, 2.5 mM NAD^+, 10 mM MgCl2 and 10 nM recombinant human ALDH2 in 50 mM Hepes buffer, pH 7.4, 0.01% Tween 20 in a final volume of 50 ul using 384-well plates. After 60 min of pre-incubation of compound with ALDH2 and formaldehyde, the reaction was started by adding NAD+ and the reaction mixture was allowed to proceed for 90 minutes. Activity of the enzyme was determined by monitoring NADH formation using Perkin-Elmer Envision Reader with excitation and emission wavelengths set at 340 and 460 nm, respectively.
(§1) Note: IC50 refers to the concentration of a compound that inhibits a reaction by 50%. In the case of competitive inhibition, IC50=2Ki when the substrate is present at the Km concentration, as per the relationship: Ki=IC50/[1+(substrate concentration/Km)].

hMAO-A = hMAO-A (Homo sapiens (Human), UniProt P21397); experiment: MAO-A assay (luminogenic MAO substrate); type: biochemical; conditions: microsome contained MAO-A, 160 uM substrate, 20 min pre-incubation; unit inferred
Procedure: (§2) MAO assays included luminogenic MAO substrate, reaction buffers, Luciferin Detection and the reconstitution buffer with esterase. Standard MAO reaction mixtures included microsome contained MAO-A (2 ug) or MAO-B (10 ug), 160 uM substrate for MAO-A or 16 uM substrate for MAO-B, MAO-A buffer (100 mM Hepes buffer, pH 7.5, 5% glycerol) or MAO-B buffer (100 mM Hepes, pH 7.5, 5% glycerol, 10% dimethyl sulfoxide) in a final volume of 30 ul. After 20 minutes of pre-incubation of the enzyme with compounds, the reaction was initiated by adding enzyme substrate and the reaction was allowed to proceed for 60 minutes. Reconstituted Luciferin Detection Reagent (30 ul) was then added is added to simultaneously stop the MAO reaction and convert the methyl ester derivative to luciferin and produce light. The amount of light produced is directly proportional to the activity of MAO. The mixtures were further incubated for 20 minutes and activity of the enzyme was determined using Perkin-Elmer Envision Reader.
as §1

hMAO-B = hMAO-B (Homo sapiens (Human), UniProt P27338); experiment: MAO-B assay (luminogenic MAO substrate); type: biochemical; conditions: microsome contained MAO-B, 16 uM substrate, 20 min pre-incubation; unit inferred
Procedure: as §2, §1

[1] = system: cocaine dependency and relapse; experiment: Operant cocaine self administration and reinstatement model in rats; conditions: p.o.
[2] = target: human mitochondrial aldehyde dehydrogenase (ALDH-2) (Homo sapiens (Human), UniProt P05091); conditions: U.S. Pat. Nos. 5,624,910 and 6,121,010; cited from earlier work
human mitochondrial aldehyde dehydrogenase (ALDH-2), sequence (P05091 18-517): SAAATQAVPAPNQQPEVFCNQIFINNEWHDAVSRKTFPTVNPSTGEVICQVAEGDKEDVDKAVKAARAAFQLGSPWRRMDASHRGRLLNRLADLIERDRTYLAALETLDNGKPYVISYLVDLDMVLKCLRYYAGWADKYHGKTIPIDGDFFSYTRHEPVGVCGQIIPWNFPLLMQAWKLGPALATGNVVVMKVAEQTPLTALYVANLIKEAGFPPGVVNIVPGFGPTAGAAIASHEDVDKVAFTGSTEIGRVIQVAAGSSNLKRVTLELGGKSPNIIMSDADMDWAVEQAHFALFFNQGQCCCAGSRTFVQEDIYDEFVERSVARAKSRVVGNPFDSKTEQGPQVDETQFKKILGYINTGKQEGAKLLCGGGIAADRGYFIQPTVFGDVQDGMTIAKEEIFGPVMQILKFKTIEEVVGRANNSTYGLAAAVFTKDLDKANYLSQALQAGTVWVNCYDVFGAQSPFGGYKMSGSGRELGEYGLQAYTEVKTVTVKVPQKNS

hMAO-A, sequence (P21397 whole entry): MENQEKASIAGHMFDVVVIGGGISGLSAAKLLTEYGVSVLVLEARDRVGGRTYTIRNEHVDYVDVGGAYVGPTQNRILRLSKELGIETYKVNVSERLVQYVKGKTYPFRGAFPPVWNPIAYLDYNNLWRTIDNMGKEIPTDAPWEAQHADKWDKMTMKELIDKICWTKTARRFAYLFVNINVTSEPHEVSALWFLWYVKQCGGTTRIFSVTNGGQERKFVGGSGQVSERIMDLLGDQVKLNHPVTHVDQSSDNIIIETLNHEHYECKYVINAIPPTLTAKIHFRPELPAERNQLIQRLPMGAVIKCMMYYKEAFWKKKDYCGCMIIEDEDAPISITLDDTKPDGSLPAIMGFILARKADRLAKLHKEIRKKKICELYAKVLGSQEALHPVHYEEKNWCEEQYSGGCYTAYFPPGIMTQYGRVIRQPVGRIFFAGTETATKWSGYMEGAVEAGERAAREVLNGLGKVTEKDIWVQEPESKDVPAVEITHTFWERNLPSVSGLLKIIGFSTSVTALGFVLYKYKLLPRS
recombinant human ALDH2, sequence (P05091 18-517): as the sequence (P05091 18-517) above
hMAO-B, sequence (P27338 whole entry): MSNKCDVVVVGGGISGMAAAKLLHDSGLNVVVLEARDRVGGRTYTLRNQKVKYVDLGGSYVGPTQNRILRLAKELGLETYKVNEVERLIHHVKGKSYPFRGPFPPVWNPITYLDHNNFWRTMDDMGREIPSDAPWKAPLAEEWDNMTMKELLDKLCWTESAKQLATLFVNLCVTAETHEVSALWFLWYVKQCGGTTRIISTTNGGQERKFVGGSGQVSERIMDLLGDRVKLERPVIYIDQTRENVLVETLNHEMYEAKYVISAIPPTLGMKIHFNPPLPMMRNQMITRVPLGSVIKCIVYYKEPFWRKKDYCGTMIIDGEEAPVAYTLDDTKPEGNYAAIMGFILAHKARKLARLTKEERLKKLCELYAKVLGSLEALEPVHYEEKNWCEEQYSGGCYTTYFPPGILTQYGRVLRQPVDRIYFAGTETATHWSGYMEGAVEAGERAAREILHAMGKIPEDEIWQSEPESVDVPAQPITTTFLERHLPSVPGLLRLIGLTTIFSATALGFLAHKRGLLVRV

| SMILES | IC50 (recombinant human ALDH2) [µM] | IC50 (hMAO-A) [µM] | IC50 (hMAO-B) [µM] | suppressing ethanol intake (ethanol intake) | reduced cocaine dependency, as reduction in the average presses of the active lever ([1]; 2.5 mg/Kg, 2 hour pre-treatment) [%] | reduced cocaine dependency, as reduction in the average presses of the active lever ([1]; 5.0 mg/Kg, 2 hour pre-treatment) [%] | reduced cocaine dependency, as reduction in the average presses of the active lever ([1]; 10.0 mg/kg, 1 hour pre-treatment) [%] | inhibition of ALDH-2 [2] |
| --- | --- | --- | --- | --- | --- | --- | --- | --- |
| O=c1c(-c2ccc(O)cc2)coc2cc(O)ccc12 [daidzein] | – | – | – | effective in suppressing ethanol intake; also recorded: effective in suppressing ethanol uptake | – | – | – | – |
| CS(=O)(=O)Nc1ccc(-c2coc3cc(C#Cc4cccnc4)ccc3c2=O)cc1 [N-(4-(4-oxo-7-(pyridin-3-ylethynyl)-4H-chromen-3-yl)phenyl)methanesulfonamide] | 0.021 | > 130 | > 130 | – | – | – | – | – |
| CS(=O)(=O)Nc1ccc(-c2coc3cc(C#CC4(O)CCCCC4)ccc3c2=O)cc1 [N-(4-(7-((1-hydroxycyclohexyl)ethynyl)-4-oxo-4H-chromen-3-yl)phenyl)methanesulfonamide] | 1.71 | > 130 | > 130 | – | – | – | – | – |
| CC(C)(O)C#Cc1ccc2c(=O)c(-c3ccc(NS(C)(=O)=O)cc3)coc2c1 [N-(4-(7-(3-hydroxy-3-methylbut-1-ynyl)-4-oxo-4H-chromen-3-yl)phenyl)methanesulfonamide] | 2.18 | > 91 | > 91 | – | – | – | – | – |
| CS(=O)(=O)Nc1ccc(-c2coc3cc(C#CC4(N)CCCCC4)ccc3c2=O)cc1 [N-(4-(7-((1-aminocyclohexyl)ethynyl)-4-oxo-4H-chromen-3-yl)phenyl)methanesulfonamide] | 0.528 | > 130 | > 130 | – | – | – | – | – |
| O=c1c(-c2ccc(O)cc2)coc2cc(O[C@@H]3O[C@H](CO)[C@@H](O)[C@H](O)[C@H]3O)ccc12 [Daidzin, daidzin] | – | – | – | – | – | – | – | potent and selective inhibitors |
| CC(C)(O)C(=O)N1CC(C#Cc2ccc3c(=O)c(-c4ccc(NS(C)(=O)=O)cc4)coc3c2)C1 [N-(4-(7-((1-(2-hydroxy-2-methylpropanoyl)-azetidin-3-yl)ethynyl)-4-oxo-4H-chromen-3-yl)phenyl)methanesulfonamide] | 0.016 | > 130 | > 130 | – | – | – | – | – |

Continued, in another order:

| IC50 (recombinant human ALDH2) [µM] | IC50 (hMAO-A) [µM] | IC50 (hMAO-B) [µM] | SMILES | suppressing ethanol intake (ethanol intake) | reduced cocaine dependency, as reduction in the average presses of the active lever ([1]; 2.5 mg/Kg, 2 hour pre-treatment) [%] | reduced cocaine dependency, as reduction in the average presses of the active lever ([1]; 5.0 mg/Kg, 2 hour pre-treatment) [%] | reduced cocaine dependency, as reduction in the average presses of the active lever ([1]; 10.0 mg/kg, 1 hour pre-treatment) [%] | inhibition of ALDH-2 [2] |
| --- | --- | --- | --- | --- | --- | --- | --- | --- |
| 0.005 | > 130 | > 130 | CC1(O)CC(C(=O)N2CC(C#Cc3ccc4c(=O)c(-c5ccc(NS(C)(=O)=O)cc5)coc4c3)C2)C1 (centres unmarked) [N-(4-(7-((1-(3-hydroxy-3-methylcyclobutane-carbonyl)azetidin-3-yl)ethynyl)-4-oxo-4H-chromen-3-yl)phenyl)methanesulfonamide] | – | – | – | – | – |
| 0.005 | > 130 | > 130 | CS(=O)(=O)Nc1ccc(-c2coc3cc(C#CC4CN(C(=O)C5CC5(F)F)C4)ccc3c2=O)cc1 (centres unmarked) [N-(4-(7-((1-(2,2-difluorocyclopropane-carbonyl)azetidin-3-yl)ethynyl)-4-oxo-4H-chromen-3-yl)phenyl)methanesulfonamide] | – | – | – | – | – |
| 0.005 | > 130 | > 130 | CS(=O)(=O)Nc1ccc(-c2coc3cc(C#CC4CN(C(=O)C5CC5)C4)ccc3c2=O)cc1 [N-(4-(7-((1-(cyclopropanecarbonyl)azetidin-3-yl)ethynyl)-4-oxo-4H-chromen-3-yl)phenyl)methanesulfonamide] | – | 70 | 60 | 87 | – |
| 0.004 | > 130 | > 130 | CS(=O)(=O)Nc1ccc(-c2coc3cc(C#CC4CN(C(=O)C5CCC5)C4)ccc3c2=O)cc1 [N-(4-(7-((1-(cyclobutanecarbonyl)azetidin-3-yl)ethynyl)-4-oxo-4H-chromen-3-yl)phenyl)methanesulfonamide] | – | – | – | – | – |
| 0.006 | > 130 | > 130 | CC1(C(=O)N2CC(C#Cc3ccc4c(=O)c(-c5ccc(NS(C)(=O)=O)cc5)coc4c3)C2)CC1 [N-(4-(7-((1-(1-methylcyclopropanecarbonyl)-azetidin-3-yl)ethynyl)-4-oxo-4H-chromen-3-yl)phenyl)methanesulfonamide] | – | – | – | – | – |
| 0.006 | > 130 | > 130 | CC(C)(C)OC(=O)NC1(C(=O)N2CC(C#Cc3ccc4c(=O)c(-c5ccc(NS(C)(=O)=O)cc5)coc4c3)C2)CCC1 [tert-butyl 1-(3-((3-(4-(methylsulfonamido)-phenyl)-4-oxo-4H-chromen-7-yl)ethynyl)azetidine-1-carbonyl)-cyclobutylcarbamate] | – | – | – | – | – |
| 0.0065 | > 130 | > 130 | CS(=O)(=O)Nc1ccc(-c2coc3cc(C#CC4CCN(C(=O)C5CC5)CC4)ccc3c2=O)cc1 [N-(4-(7-((1-(cyclopropanecarbonyl)piperidin-4-yl)ethynyl)-4-oxo-4H-chromen-3-yl)phenyl)methanesulfonamide] | – | – | – | – | – |
